Assay results reported in patent publication US8808702B2, “Sulfide, sulfoxide and sulfone chalcone analogues, derivatives thereof and therapeutic uses thereof” (Temple University-of the Commonwealth System of Higher …, priority 2006, dated 2014).
Where two headings read alike, the source gives them in different places.

Legend:
[1] = test system: K562 (chronic myelogenous leukaemia); test: Effect of compounds on tumor cell lines (assay of Latham et al.), K562; format: cell-based; settings: Homo sapiens, K562 cells, examined 96 hours after treatment, 1 μM to 100 μM in DMSO
Method in brief: (§1)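 After 96 h of exposure to compound (1–100 μM in DMSO; one compound at 0.1–100 μM), effects were scored by inverted-microscope inspection, with trypan blue viable counts by hemacytometer when required. Cells were seeded at 2.5×10^4 per well and dosed 24 h after plating.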

DU145 (prostate cancer) = test: Effect of compounds on tumor cell lines (assay of Latham et al.), DU145; format: cell-based; settings: Homo sapiens, DU-145, DU145 cells, examined 96 hours after treatment, 1 μM to 100 μM in DMSO
Method in brief: as §1

[2] = Table 4, read-out: K 562 potency (IC50)
[3] = Table 4, read-out: DU 145 potency (IC50)

Row | Compound | IC50 [1, 2] | IC50 (DU145 (prostate cancer); [3]) | melting point | IC50 ([1]; Table 1, read-out: K 562 potency (IC50)) | IC50 (DU145 (prostate cancer); Table 1, read-out: DU 145 potency (IC50)) | IC50 ([1]; Table 4, read-out: K 562 potency (IC50), given as number) | IC50 (DU145 (prostate cancer); Table 4, read-out: DU 145 potency (IC50), given as number)
1 | O=C(/C(=C\c1cc([N+](=O)[O-])ccc1F)S(=O)(=O)Cc1ccc(F)cc1)c1ccc(Br)cc1 [Example 403] | 50 to 100 µM | > 100 µM | 172 to 177 °C |  |  |  | 
2 | Cc1ccc(CS(=O)(=O)/C(=C/c2ccccc2OCc2ccccc2)C(=O)c2ccc(Cl)cc2)cc1 [Example 426] | 1 to 10 µM | 1 to 10 µM | 112 to 129 °C |  |  |  | 
3 | Cc1ccc(CS(=O)(=O)/C(=C/c2cccc(Cl)c2Cl)C(=O)c2ccc(Cl)cc2)cc1 [Example 423] | 1 to 10 µM | 1 to 10 µM | 162 to 165 °C |  |  |  | 
4 | COc1ccc(/C=C(\C(=O)c2ccc(Br)cc2)S(=O)(=O)Cc2ccc(Cl)cc2)c(O)c1 [Example 382] | 10 to 25 µM | 10 to 25 µM | 72 to 78 °C |  |  |  | 
5 | O=C(/C(=C\c1ccc(Br)cc1)S(=O)(=O)Cc1ccc(I)cc1)c1ccc(I)cc1 [Example 419, (E)-1-(4-Iodophenyl)-2-(4-iodobenzylsulfonyl)-3-(4-bromophenyl)prop-2-en-1-one] | 25 to 50 µM | 25 to 50 µM | 180 to 182 °C |  |  |  | 
6 | O=C(/C(=C\c1ccccc1OCc1ccccc1)S(=O)(=O)Cc1ccccc1Cl)c1ccc(Cl)cc1 [Example 358] | 1 to 10 µM | 1 to 10 µM | 137 to 148 °C |  |  |  | 
7 | COc1ccccc1/C=C(\C(=O)c1ccc(Cl)cc1)S(=O)(=O)Cc1ccc(Cl)c(Cl)c1 [Example 364] | 1 to 10 µM | 1 to 10 µM | 154 to 157 °C |  |  |  | 
8 | O=C(/C(=C\c1ccc(-c2ccccc2)cc1)S(=O)(=O)Cc1ccc(Cl)cc1)c1ccc(Cl)cc1 [Example 398] | 25 to 50 µM | 25 to 50 µM | 65 to 72 °C |  |  |  | 
9 | CCOc1ccc(/C=C(\C(=O)c2ccc(Cl)cc2)S(=O)(=O)Cc2ccccc2Cl)cc1OC [Example 361] | 10 to 25 µM | 10 to 25 µM | 123 to 128 °C |  |  |  | 
10 | O=C(/C(=C\c1ccccc1OCc1ccccc1)S(=O)(=O)Cc1ccc(Cl)cc1)c1ccc(Br)cc1 [Example 381] | 1 to 10 µM | 10 to 25 µM | 136 to 142 °C |  |  |  | 
11 | O=C(/C(=C\c1c(O)cc(O)cc1O)S(=O)(=O)Cc1ccc(Cl)cc1)c1ccc(Cl)cc1 [Example 377] | > 100 µM | > 100 µM | 232 to 236 °C |  |  |  | 
12 | Cc1ccc(C)c(/C=C(\C(=O)c2ccc(Br)cc2)S(=O)(=O)Cc2ccc(F)cc2)c1 [Example 401] | 1 to 10 µM | 1 to 10 µM | 167 to 173 °C |  |  |  | 
13 | O=C(/C(=C\c1ccc(I)cc1)Sc1ccc(Br)cc1)c1ccc(Br)cc1 [Example 45, (E)-1-(4-bromophenyl)-2-(4-bromophenylthio)-3-(4-Iodophenyl)-prop-2-en-1-one] |  |  | 128 to 130 °C | 1 to 10 µM | 1 to 10 µM |  | 
14 | CCOc1cc(/C=C(\C(=O)c2ccc(Cl)cc2)S(=O)(=O)Cc2ccc(Cl)cc2)ccc1O [Example 386] | 10 to 25 µM | 10 to 25 µM | 134 to 139 °C |  |  |  | 
15 | COc1cc(OC)c(/C=C(\C(=O)c2ccc(Br)cc2)S(=O)(=O)Cc2ccc(F)cc2)c(OC)c1 [Example 399] | 50 to 100 µM | 50 to 100 µM | 176 to 182 °C |  |  |  | 
16 | CSc1ccc(/C=C(\C(=O)c2ccc(Cl)cc2)S(=O)(=O)Cc2ccc(C)cc2)cc1 [Example 437] | 25 to 50 µM | 10 to 25 µM | 140 to 152 °C |  |  |  | 
17 | Cc1ccc(CS(=O)(=O)/C(=C/c2cc(C)cc(C)c2)C(=O)c2ccc(Cl)cc2)cc1 [Example 429] | 10 to 25 µM | 10 to 25 µM | 169 to 178 °C |  |  |  | 
18 | Cc1ccc(CS(=O)(=O)/C(=C/c2c[nH]c3ccc(Br)cc23)C(=O)c2ccc(Cl)cc2)cc1 [Example 439] | 10 to 25 µM | 10 to 25 µM | 186 to 195 °C |  |  |  | 
19 | O=C(/C(=C\c1ccc(Br)cc1)S(=O)(=O)Cc1ccc(Cl)cc1)c1ccc(Cl)cc1 [Example 392] | 10 to 25 µM | 10 to 25 µM | 100 to 103 °C |  |  |  | 
20 | O=C(/C(=C\c1c[nH]c2ccccc12)S(=O)(=O)Cc1ccc(F)cc1)c1ccc(Cl)cc1 [Example 406] | 50 to 100 µM | 50 to 100 µM | > 200 °C |  |  |  | 
21 | Cc1ccc(C)c(/C=C(\C(=O)c2ccc(Cl)cc2)S(=O)(=O)Cc2ccc(Cl)cc2)c1 [Example 380] | 10 to 25 µM | 10 to 25 µM | 129 to 136 °C |  |  |  | 
22 | Cc1ccc(/C=C(\C(=O)c2ccc(Cl)cc2)S(=O)(=O)Cc2ccc(Cl)cc2Cl)s1 [Example 356] | 25 to 50 µM | 10 to 25 µM | 115 to 117 °C |  |  |  | 
23 | COc1ccc(C(=O)/C(=C\c2ccc(Br)cc2)S(=O)(=O)Cc2ccc(Br)cc2)cc1 [Example 371] | 1 to 10 µM | 1 to 10 µM | 146 to 148 °C |  |  |  | 

Row | Compound | IC50 [1, 2] | IC50 (DU145 (prostate cancer); [3]) | melting point | IC50 ([1]; Table 1, read-out: K 562 potency (IC50)) | IC50 (DU145 (prostate cancer); Table 1, read-out: DU 145 potency (IC50)) | IC50 ([1]; Table 4, read-out: K 562 potency (IC50), given as number) | IC50 (DU145 (prostate cancer); Table 4, read-out: DU 145 potency (IC50), given as number)
24 | COc1ccccc1/C=C(\C(=O)c1ccc(Cl)cc1)S(=O)(=O)Cc1ccc(Cl)cc1 [Example 383] | 25 to 50 µM | 25 to 50 µM | 135 to 142 °C |  |  |  | 
25 | COc1ccc(/C=C(\C(=O)c2ccc(Cl)cc2)S(=O)(=O)Cc2ccc(Cl)cc2)c(OC)c1OC [Example 375] | 1 to 10 µM | 10 to 25 µM | 148 to 151 °C |  |  |  | 
26 | Cc1ccc(CS(=O)(=O)/C(=C/c2cc(C)ccc2C)C(=O)c2ccc(Cl)cc2)cc1 [Example 425] | 1 to 10 µM | 1 to 10 µM | 176 to 182 °C |  |  |  | 
27 | O=C(/C(=C\c1ccc(OCc2ccccc2)cc1)S(=O)(=O)Cc1ccc(Cl)cc1)c1ccc(Cl)cc1 [Example 391] | 1 to 10 µM | 1 to 10 µM | 91 to 99 °C |  |  |  | 
28 | Cc1ccc(CS(=O)(=O)/C(=C/c2ccc(Cl)cc2)C(=O)c2ccc(Cl)cc2)cc1 [Example 434] | 25 to 50 µM | 25 to 50 µM | 128 to 133 °C |  |  |  | 
29 | Cc1ccc(CS(=O)(=O)/C(=C/c2ccc(S(C)(=O)=O)cc2)C(=O)c2ccc(Br)cc2)cc1 [Example 438] | 1 to 10 µM | 10 to 25 µM | 110 to 112 °C |  |  |  | 
30 | Cc1ccc(/C=C(\C(=O)c2ccc(Cl)cc2)S(=O)(=O)Cc2ccc(Cl)cc2)s1 [Example 396] | 1 to 10 µM | 1 to 10 µM | 148 to 152 °C |  |  |  | 
31 | Cc1ccsc1/C=C(\C(=O)c1ccc(Cl)cc1)S(=O)(=O)Cc1ccc(Cl)cc1 [Example 388] | 25 to 50 µM | 25 to 50 µM | 130 to 139 °C |  |  |  | 
32 | Cc1ccc(CS(=O)(=O)/C(=C/c2ccc(N(C)C)cc2)C(=O)c2ccc(Cl)cc2)cc1 [Example 432] | 50 to 100 µM | 50 to 100 µM | 150 to 154 °C |  |  |  | 
33 | Cc1cc(C)cc(/C=C(\C(=O)c2ccc(Br)cc2)S(=O)(=O)Cc2ccc(F)cc2)c1 [Example 405] | 10 to 25 µM | 10 to 25 µM | 140 to 143 °C |  |  |  | 
34 | CSc1ccc(/C=C(\C(=O)c2ccc(Cl)cc2)S(=O)(=O)Cc2ccc(Cl)cc2)cc1 [Example 394] | 10 to 25 µM | 10 to 25 µM | 94 to 108 °C |  |  |  | 
35 | O=C(/C(=C\c1ccc(Br)cc1)S(=O)(=O)Cc1ccccc1Cl)c1ccc(Cl)cc1 [Example 360] | 25 to 50 µM | 25 to 50 µM | 186 to 192 °C |  |  |  | 
36 | CCOc1ccc(/C=C(\C(=O)c2ccc(Cl)cc2)S(=O)(=O)Cc2ccc(C)cc2)cc1OC [Example 435] | 10 to 25 µM | 10 to 25 µM | 65 to 72 °C |  |  |  | 
37 | O=C(/C(=C\c1ccc(Br)cc1)S(=O)(=O)Cc1ccc(I)cc1)c1ccc(Br)cc1 [Example 418] |  |  | 168 to 170 °C |  |  | > 50 µM | > 50 µM
38 | Cc1cc(C)cc(/C=C(\C(=O)c2ccc(Cl)cc2)S(=O)(=O)Cc2ccc(Cl)cc2)c1 [Example 385] | 1 to 10 µM | 1 to 10 µM | 146 to 152 °C |  |  |  | 
39 | Cc1ccc(CS(=O)(=O)/C(=C/c2c(O)cc(O)cc2O)C(=O)c2ccc(Cl)cc2)cc1 [Example 424] | > 100 µM | > 100 µM | 167 to 180 °C |  |  |  | 
40 | O=C(/C(=C\c1ccccc1OCc1ccccc1)S(=O)(=O)Cc1ccc(F)cc1)c1ccc(Cl)cc1 [Example 402] |  |  | 139 to 145 °C |  |  |  | 
41 | O=C(/C(=C\c1ccc(O)cc1)S(=O)(=O)Cc1ccc(F)cc1)c1ccc(Br)cc1 [Example 413] |  |  | 188 to 192 °C |  |  |  | 
42 | Cc1ccc(/C=C(\C(=O)c2ccc(Cl)cc2)S(=O)(=O)Cc2ccc(F)cc2)s1 [Example 417] |  |  | 116 to 120 °C |  |  |  | 
43 | CN(C)c1ccc(/C=C(\C(=O)c2ccc(C(=O)O)cc2)S(=O)(=O)Cc2ccc(Cl)cc2)cc1 [Example 390] |  |  | 176 to 180 °C |  |  |  | 
44 | COc1ccc(/C=C(\C(=O)c2ccc(Cl)cc2)S(=O)(=O)Cc2ccccc2Cl)cc1 [Example 363] |  |  | 195 to 210 °C |  |  |  | 
45 | Cc1ccc(/C=C(\C(=O)c2ccc(Br)cc2)S(=O)(=O)Cc2ccc(F)cc2)s1 [Example 416] |  |  | 156 to 161 °C |  |  |  | 
46 | COc1ccc(CS(=O)(=O)/C(=C/c2c(OC)cc(OC)cc2OC)C(=O)c2ccc(OC)cc2)cc1 [Example 422, (E)-1-(4-methoxyphenyl)-2-(4-methoxybenzylsulfonyl)-3-(2,4,6-trimethoxyphenyl)-prop-2-en-1-one] |  |  | 60 to 62 °C |  |  |  | 
